Tests used:
[1] = Intrinsic clearance Cli, rat; type: in vitro ADME
[2] = Intrinsic clearance Cli, human; type: in vitro ADME
Pgp = molecular target: T1, Pgp (Homo sapiens, UniProt P08183); test: Pgp efflux, Caco-2; type: in vitro ADME
T1 construct: endogenous in cells; host or cells: Caco-2

Fu plasma, human = type: in vitro ADME
[3] = system: IM-9 ("normal" EBV immortalized B cell); test: Trypan blue exclusion cell viability assay; type: cell-based; settings: Homo sapiens, IM-9 cells, 72 h
Experimental: (§1) Cell viability assay. B and T cell viability was measured using the trypan blue exclusion method. Cells were grown in confluency conditions (2×10^6 cells/mL maximum) assuring the minimum basal apoptosis. […] Cell viability was quantified using the TC10™ automated cell counter (Biorad).
(§2) […]. The drugs were dissolved in DMSO to make 100× stock solutions for each concentration tested, so that the final volume of DMSO in each well was 1%. The viability of cells treated with these inhibitors was measured with a trypan blue exclusion assay (Hudson, 1976).
(§3) Cell viability was then quantified using the TC10™ automated cell counter (Biorad).

[4] = system: KMH2 (Hodgkin's lymphoma) cells; test: Trypan blue exclusion cell viability assay; type: cell-based; settings: Homo sapiens, KM-H2, 72 h
Experimental: as §1, §2, §3

[5] = Mouse IV pharmacokinetics; type: in vivo; settings: whole blood, [ ] = range; for Vd: read-out: Vss
[6] = system: Ramos (Burkitt's lymphoma) cells; test: Trypan blue exclusion cell viability assay; type: cell-based, human; settings: Homo sapiens, 72 h
Experimental: as §1
(§4) The drugs were dissolved in DMSO to make 100× stock solutions for each concentration tested, so that the final volume of DMSO in each well was 1%.
as §3

[7] = system: BL-2 (Burkitt's lymphoma) cells; test: Trypan blue exclusion cell viability assay; type: cell-based, human
Experimental: as §1, §4, §3

Caco-2 permeability Papp = type: in vitro ADME; settings: human
CYP450 2C19 = CYP450 2C19 (Homo sapiens, UniProt P33261); test: CYP450 inhibition; type: in vitro ADME; settings: 2C19, at 1 uM
Chain of CYP450 2C19 (P33261 whole entry): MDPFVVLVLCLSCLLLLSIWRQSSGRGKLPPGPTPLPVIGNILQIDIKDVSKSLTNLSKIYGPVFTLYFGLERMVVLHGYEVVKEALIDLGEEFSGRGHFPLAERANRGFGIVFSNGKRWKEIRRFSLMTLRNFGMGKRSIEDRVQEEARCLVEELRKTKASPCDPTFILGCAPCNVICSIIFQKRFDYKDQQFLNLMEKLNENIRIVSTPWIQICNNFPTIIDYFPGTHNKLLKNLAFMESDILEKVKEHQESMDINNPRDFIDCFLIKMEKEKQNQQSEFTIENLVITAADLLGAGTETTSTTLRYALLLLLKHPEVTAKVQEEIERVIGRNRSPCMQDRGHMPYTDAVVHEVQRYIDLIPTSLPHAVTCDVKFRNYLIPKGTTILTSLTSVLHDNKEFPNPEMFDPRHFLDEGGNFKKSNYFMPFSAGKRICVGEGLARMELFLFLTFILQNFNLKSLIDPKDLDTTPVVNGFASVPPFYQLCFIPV

[8] = Intrinsic clearance Cli, mouse; type: in vitro ADME
hERG = hERG (Homo sapiens, UniProt Q12809); test: hERG (patch clamp); type: cell-based
Chain of hERG (Q12809 whole entry): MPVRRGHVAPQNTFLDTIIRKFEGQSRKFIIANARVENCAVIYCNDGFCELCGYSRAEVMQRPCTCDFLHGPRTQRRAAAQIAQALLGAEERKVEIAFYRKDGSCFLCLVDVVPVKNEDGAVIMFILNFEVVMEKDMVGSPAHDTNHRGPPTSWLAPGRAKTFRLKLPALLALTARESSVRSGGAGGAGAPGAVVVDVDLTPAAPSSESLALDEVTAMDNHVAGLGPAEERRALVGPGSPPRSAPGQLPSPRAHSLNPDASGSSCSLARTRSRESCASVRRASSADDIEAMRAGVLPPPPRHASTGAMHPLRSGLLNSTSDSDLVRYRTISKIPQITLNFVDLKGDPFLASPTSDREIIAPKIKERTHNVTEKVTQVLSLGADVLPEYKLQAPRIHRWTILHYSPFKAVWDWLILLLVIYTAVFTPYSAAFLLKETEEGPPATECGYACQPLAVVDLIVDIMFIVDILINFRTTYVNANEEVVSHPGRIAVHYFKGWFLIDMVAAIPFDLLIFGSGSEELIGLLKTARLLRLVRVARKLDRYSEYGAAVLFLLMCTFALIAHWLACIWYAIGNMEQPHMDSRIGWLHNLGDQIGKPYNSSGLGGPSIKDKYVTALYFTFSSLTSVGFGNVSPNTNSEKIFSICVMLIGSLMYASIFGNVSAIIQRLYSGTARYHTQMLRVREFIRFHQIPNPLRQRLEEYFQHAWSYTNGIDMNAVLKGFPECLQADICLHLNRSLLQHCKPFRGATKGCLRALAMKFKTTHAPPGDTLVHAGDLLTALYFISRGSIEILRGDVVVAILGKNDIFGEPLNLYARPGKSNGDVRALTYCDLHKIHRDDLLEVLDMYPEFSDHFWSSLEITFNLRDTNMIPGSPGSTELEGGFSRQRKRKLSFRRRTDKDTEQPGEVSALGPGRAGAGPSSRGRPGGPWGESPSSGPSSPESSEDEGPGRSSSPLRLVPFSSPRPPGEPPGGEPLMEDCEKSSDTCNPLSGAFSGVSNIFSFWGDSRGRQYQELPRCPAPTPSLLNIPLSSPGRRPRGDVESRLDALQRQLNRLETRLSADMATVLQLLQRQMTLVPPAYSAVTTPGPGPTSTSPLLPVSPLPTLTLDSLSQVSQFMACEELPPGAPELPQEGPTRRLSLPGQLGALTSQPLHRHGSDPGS

Fu Brain = type: in vitro ADME
[9] = Mouse PO pharmacokinetics 10 mg/kg; settings: in vivo, PO 10 mg/kg, [ ] = range
B:B Ratio = type: in vivo; settings: brain / blood
[10] = system: myristoylation in IM-9 cells; test: Inhibition of myristoylation, alkynyl-myristate labeling and click chemistry; type: cell-based, human
Experimental: (§5) Cells were labeled with 100 to 25 μM ω-alkynyl myristic acid 30 min prior to harvesting the cells and lysed in 0.1% SDS-RIPA-HEPES buffer. Protein (50-30 μg) from the resulting cell lysates were reacted with 100 μM azido-biotin using click chemistry and processed as described previously (Yap et al., 2010). Briefly, cells were starved of fatty acids by incubating in media (RPMI or DMEM) which were supplemented with 5% dextran-coated charcoal-treated FBS (DCC-FBS) for 1 h prior to labeling. Next, ω-alkynyl-myristic acid was dissolved in DMSO to generate 25 or 100 mM stock solutions. Typically, the cellular uptake of ω-alkynyl myristic acid typically was improved with saponification and conjugation to BSA. Therefore, prior to labeling, ω-alkynyl myristic acid was saponified with 20% molar excess of potassium hydroxide at 65° C. for 15 min. Next, serum-free culture media (pre-warmed) containing 20% fatty acid-free BSA at 37° C. was added to the saponified ω-alkynyl myristic acid and incubated for an additional 15 min at 37° C.
(§6) Subsequently, cells deprived of fatty acids were washed once with warm PBS and incubated in fresh RPMI or DMEM without any supplements. Next, the appropriate volume of 20× fatty acid-BSA conjugate in serum-free media was added to the cells, to ensure that the final concentration of BSA was 1% and Q-alkynyl myristic acid was at the indicated concentration (25 μM or 100 μM) for each respective experiment. DMSO or unlabeled fatty acids conjugated to BSA were used as controls for the experiments performed. Cells were labeled with ω-alkynyl myristic acid for 30 min at 37° C. in a 5% CO2 humidified incubator prior to harvesting. Cells were harvested in 0.1% SDS-RIPA-HEPES buffer that was supplemented with 1× complete protease inhibitor (EDTA-free).
(§7) After labeling cells with ω-alkynyl myristic acid, the resulting lysates were subjected to click chemistry with azido-biotin to enable the detection of the myristoylated proteins by ECL as described previously (Yap et al., 2010). Typically, cell lysates (30-50 μg of protein) were adjusted to contain 1% SDS and incubated with 100 μM Tris-(benzyltriazolylmethyl)amine (TBTA), 1 mM CuSO4, 1 mM Tris-carboxyethylphosphine (TCEP), and 100 μM azido-biotin at 37° C. for 30 min in darkness, in order for the click reaction to proceed. Next, 10 volumes of ice-cold acetone was added to stop the click reaction and proteins were precipitated at −20° C. overnight. Subsequently, the acetone precipitated proteins were centrifuged at 16,000 g for 10 min, resuspended in 1×SDS-PAGE sample buffer with 20 mM DTT. […]
(§8) In FIG. 9 E, the minimal dose of DDD86481 required to inhibit myristoylation in IM-9, BL2 and Ramos cell lines, was determined. […]

[11] = system: myristoylation in BL2 cells; test: as above; type: cell-based, human
Experimental: as §5, §6, §7, §8

[12] = system: myristoylation in Ramos cells; test: as above; type: cell-based, human; settings: 2 h treatment
Experimental: as §5
Subsequently, cells deprived of fatty acids were washed once with warm PBS and incubated in fresh RPMI or DMEM without any supplements. […]
as §8

BL (BL2 and Ramos) cells = test: Induction of apoptosis, PARP-1 and caspase-3 cleavage by western blotting; type: cell-based, human; settings: BL cell lines, 72 h
Experimental: (§9) “Normal” immortalized B lymphocytes (IM9), KMH2 (Hodgkin's lymphoma) and BL (BL2 and Ramos) cells were incubated with increasing concentrations (nM) of DDD86481 and monitored the cleavage of poly-ADP-ribose polymerase-1 (PARP-1) and caspase-3 after the 72 h time point. Western blotting was performed on cell lysates to monitor the cleavage or PARP-1 and caspase-3 as well as the presence of GAPDH as loading control (composite gels).

[13] = system: "Normal" immortalized B lymphocytes (IM9); test: as above; type: cell-based, human; settings: IM9, 72 h
Experimental: as §9

[14] = system: KMH2 (Hodgkin's lymphoma) cells; test: as above; type: cell-based, human; settings: KMH2, 72 h
Experimental: as §9

[15] = system: Ramos (Burkitt's lymphoma) cells; test: MTS cell viability assay; type: cell-based, human
Experimental: (§10) […]. The drugs were dissolved in DMSO to make 100× stock solutions for each concentration tested, so that the final volume of DMSO in each well was 1%. MTS [(3-(4,5-dimethylthiazol-2-yl)-5-(3-carboxymethoxyphenyl)-2-(4-sulfophenyl)-2H-tetrazolium)] assay was used to measure the cytotoxicity of the drug (Cory et al., 1991).
(§11) In FIG. 9, Panel B, DDD86481 was used to treat BL cells and control cell lines [IM9 (“normal” B lymphocyte) and KMH2 (HL cell line) that expresses both NMTs]. […]. The EC50 data are summarized as follows.

[16] = system: BL-2 (Burkitt's lymphoma) cells; test: MTS cell viability assay; type: cell-based, human
Experimental: as §10, §11

[17] = system: IM-9 ("normal" EBV immortalized B cell); test: MTS cell viability assay; type: cell-based; settings: Homo sapiens
Experimental: as §10, §11

[18] = system: KMH2 (Hodgkin's lymphoma) cells; test: MTS cell viability assay; type: cell-based; settings: Homo sapiens, KM-H2, 72 h
Experimental: as §10, §11

Fu plasma, mouse = type: in vitro ADME

T1 sequence (P08183 whole entry): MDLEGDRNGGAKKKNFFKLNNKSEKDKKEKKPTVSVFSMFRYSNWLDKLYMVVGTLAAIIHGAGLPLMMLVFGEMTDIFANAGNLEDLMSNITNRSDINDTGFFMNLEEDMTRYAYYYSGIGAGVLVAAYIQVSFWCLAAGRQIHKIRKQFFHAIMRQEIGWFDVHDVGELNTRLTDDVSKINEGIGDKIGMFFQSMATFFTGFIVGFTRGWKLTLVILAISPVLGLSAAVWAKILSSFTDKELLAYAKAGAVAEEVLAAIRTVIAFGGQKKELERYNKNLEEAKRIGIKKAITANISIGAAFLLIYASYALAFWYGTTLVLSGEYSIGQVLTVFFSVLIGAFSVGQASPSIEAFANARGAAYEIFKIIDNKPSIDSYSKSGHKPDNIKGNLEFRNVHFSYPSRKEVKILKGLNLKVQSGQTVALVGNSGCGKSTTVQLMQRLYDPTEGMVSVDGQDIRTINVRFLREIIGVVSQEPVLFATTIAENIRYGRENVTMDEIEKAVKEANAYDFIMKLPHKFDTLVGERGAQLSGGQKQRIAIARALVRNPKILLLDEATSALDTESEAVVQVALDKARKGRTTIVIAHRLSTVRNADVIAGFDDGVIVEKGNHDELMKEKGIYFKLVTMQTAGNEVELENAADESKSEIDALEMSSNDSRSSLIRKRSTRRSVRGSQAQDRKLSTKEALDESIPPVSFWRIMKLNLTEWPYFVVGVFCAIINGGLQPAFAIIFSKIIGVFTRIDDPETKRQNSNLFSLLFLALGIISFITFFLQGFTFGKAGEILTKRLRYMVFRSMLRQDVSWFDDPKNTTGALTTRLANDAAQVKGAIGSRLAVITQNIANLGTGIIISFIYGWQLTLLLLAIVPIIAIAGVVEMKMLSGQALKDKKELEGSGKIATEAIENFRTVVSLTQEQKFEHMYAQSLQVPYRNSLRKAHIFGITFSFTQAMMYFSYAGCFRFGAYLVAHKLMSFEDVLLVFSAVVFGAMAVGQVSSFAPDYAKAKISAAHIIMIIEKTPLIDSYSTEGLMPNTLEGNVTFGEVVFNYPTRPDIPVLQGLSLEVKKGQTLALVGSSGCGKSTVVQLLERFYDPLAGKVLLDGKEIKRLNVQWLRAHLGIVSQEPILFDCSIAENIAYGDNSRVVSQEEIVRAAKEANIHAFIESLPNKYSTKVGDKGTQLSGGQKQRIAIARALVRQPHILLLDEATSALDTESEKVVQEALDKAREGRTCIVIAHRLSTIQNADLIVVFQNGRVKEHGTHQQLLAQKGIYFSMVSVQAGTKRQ

In the case of `Cc1nn(C)c(C)c1NS(=O)(=O)c1c(Cl)cc(-c2ccnc(N3CCNCC3)c2)cc1Cl` [DDD85646], the “Cli Rat” value [1] is reported as 0.5 mL/min/g, the “Cli Human” value [2] is reported as 1.2 mL/min/g and the Pgp (Pgp) is reported as “YES (Efflux ratio =”. For the same molecule, the fraction unbound (Fu plasma, human) was 0.176, the EC50 [3] was 7080 nM and the EC50 [4] was 29600 nM. The half-life [5] was 1.3 h, the Vd [5] was 0.6 L/kg and the EC50 [6] was 370 nM. The “times more sensitive than cells expressing both NMTs” value ([7]; BL-2 and Ramos vs immortalized "normal" B cells or KMH2, trypan blue) was 15-72 times, the EC50 ([7]; Homo sapiens, BL2, 72 h) was 430 nM and the Papp A→B (Caco-2 permeability Papp) was 4.3 ×10⁻⁶ cm/s. For the same molecule, the CYP450 inhibition (CYP450 2C19) was 2C19 (19% at 1 uM), the “Cli Mouse” value [8] was 0.6 mL/min/g and the “hERG (patch clamp)” value (hERG) was 27.7. The fraction unbound (Fu Brain) was 0.068, the Cmax [9] was 2690 ng/mL and the Tmax [9] was 0.25 h.
In the case of `Cc1c(NS(=O)(=O)c2c(Cl)cc(-c3ccnc(N4CCNCC4)c3)cc2Cl)c(CC(C)C)nn1C` [DDD86481], the Kp (B:B Ratio) is reported as 0.04, the “Cli Rat” value [1] is reported as 1.0 mL/min/g and the “Cli Human” value [2] is reported as 0.7 mL/min/g. The inhibition of myristoylation ([10]; IM-9, 1 μM, after one hour of treatment) was “nearly complete inhibition of myristoylation”, the “minimal dose at which incorporation of alkyne-myristate label decreases” value ([10]; IM-9, 2 h treatment) was 100 nM and the inhibition of myristoylation ([11]; BL2, 1 μM, after one hour of treatment) was “nearly complete inhibition of myristoylation”. For the same molecule, the “minimal dose at which incorporation of alkyne-myristate label decreases” value ([11]; BL-2, 2 h treatment) was 50 nM, the “minimal dose at which incorporation of alkyne-myristate label decreases” value [12] was 50 nM and the “PARP-1 and caspase-3 cleavage” value (BL (BL2 and Ramos) cells) was “occurred in a dose-dependent fashion”. For the same molecule, the “PARP-1 and caspase-3 cleavage” value [13] was “No PARP-1 or caspase-3 cleavage was observed”, the PARP-1 cleavage [14] was “observed at higher concentrations, although it was minimal” and the EC90 ([15]; Homo sapiens, Ramos) was 400 nM. The EC50 ([15]; Homo sapiens, Ramos, 72 h) was 42 nM, the “factor by which cancer cells are preferentially killed” value ([15]; ratios of the EC50's and EC90's, normal B cell line vs Burkitt lymphoma cell lines) was > 300 fold and the “times more sensitive than cells expressing both NMTs” value ([16]; BL-2 and Ramos vs immortalized "normal" B cells or KMH2, MTS) was 15-72 times. For the same molecule, the EC90 ([16]; Homo sapiens, BL2) was 210 nM, the EC50 ([16]; Homo sapiens, BL2, 72 h) was 58 nM and the EC90 ([17]; IM-9, IM9 cells, calculated from FIG. 9B) was 134000 nM. It also gave an EC50 ([17]; IM-9 cells, 72 h, MTS) of 2200 nM, an EC50 [18] of 12600 nM and a half-life [5] of 1.5 h. The Vd [5] was 0.4 L/kg, the “Cli Mouse” value [8] was <0.5 mL/min/g and the fraction unbound (Fu plasma, mouse) was 0.067. It also gave a Cmax [9] of 11200 ng/mL, a Tmax [9] of 2 h and a half-life [9] of 5.7 h.

From patent US20250179589A1, “SYNTHETIC LETHALITY AND THE TREATMENT OF CANCER” (PACYLEX PHARMACEUTICALS INC., priority 2012, published 2025)
